The values that follow come from US20230272016A1, “PEPTIDES FOR IMMUNOTHERAPY” (Second Genome, Inc., priority 2020, published 2023).

One experiment has as its system RENCA tumors. As to the kind of experiment: RENCA murine adenocarcinoma syngeneic tumor model. It is filed as in vivo, BALB/c mice. To be noted: for survival time (days) / tumor volume: peptide 2.5 mg/kg daily peritumorally; for survival time (days): anti-PD-1 10 mg/kg i.p., compared to PBS or anti-PD-1 alone; for tumor volume: anti-PD-1 10 mg/kg intraperitoneal, compared to PBS treated control mice. The protocol: To determine anti-tumor activity of SG-3-00802 in vivo, the RENCA murine adenocarcinoma model was used. It is a syngeneic, standardized experimental model of metastatic RCC. Briefly, BALB/c female mice were inoculated subcutaneously with RENCA cells. Established tumors were treated daily with 2.5 mg/kg SG-3-00802 peritumorally, alone or in combination with intraperitoneal administration of 10 mg/kg anti-PD-1 antibody. […] QD indicates administration of the peptide once a day. BID indicates administration of the peptide twice a day.
Balb/c female mice were implanted with RENCA cells in the left flank. When tumors were established and reach ˜100 mm^3 or 200 mm^3 mice were allocated into dosing groups. Each dosing group had 10-12 animals. Peptides were dosed peritumoral at 2.5 mg/kg BID for 7 d and anti-PD-1 was dosed intraperitoneally at 10 mg/kg TIW for a total of 3 doses. Mice were monitored for tumor growth and survival. Tumor volumes were measured twice a week. A survival event (censoring) was reached when tumor volume reached 1000 mm^3 and additional survival events were defined as animals that had to be euthanized due to ulceration.
Additional studies were performed to test survival and tumor volume responses to a re-challenge event. In one study, mice were allocated into dosing groups when tumors reached ˜100 mm^3. During the initial dosing study, time 0 was the first day of seven days of dosing. […] Re-implantation was completed on day 39 after dosing completion. Treated mice were tumor free for >20 days before being re-challenge. […] Tumor volume and survival was been monitored as previously described. In the re-challenge experiment, time 0 is day 10 after re-challenge dosing.
In the initial dosing experiment, tumor volumes were smaller in both the SG-3-00802 alone treatment and SG-3-00802 with anti-PD-1 antibody combinatorial treatment 40 days after dosing started (FIGS. 32A-32B).
In another re-challenge study, mice were instead allocated into dosing groups when tumors reached ˜200 mm^3. The same procedure as described above was used, except where indicated. […] Re-implantation was completed on day 37 after dosing completion, and time 0 is day 12 post re-challenge. […] In the initial dosing experiment, tumor volumes were smaller in both the SG-3-00802 alone treatment and SG-3-00802 with anti-PD-1 antibody combinatorial treatment 15 days after dosing started (FIGS. 35A-35B).
To determine anti-tumor activity of SG-3-00802 in vivo, the RENCA murine adenocarcinoma model was used. Briefly, BALB/c female mice were inoculated subcutaneously with RENCA cells. Established tumors were treated daily with 2.5 mg/kg SG-3-00802 peritumorally, alone or in combination with intraperitoneal administration of 10 mg/kg anti-PD-1 antibody. […]

For experiment [1], the system named is immature monocyte-derived dendritic cells (moDCs) and allogeneic T cells. Nature of the experiment: moDC / allogeneic T cell co-culture cytokine secretion. It is filed as cell-based, human. The settings on record: after anti-CD40 pre-stimulation, peptide alone or in combination with anti PD1; 72 hours; >4 donor PBMCs. As for the experimental part: In another study, immature monocyte-derived dendritic cells (moDCs) were pre-stimulated with anti-CD40 agonist antibody or the mouse IgG1 isotype control antibody. Twenty-four hours later, T cells isolated from allogeneic donors were added to the moDCs with the peptide of interest, SG-3-00802 or SG-3-05021, alone or in combination with […] monoclonal antibody. The co-culture of cells was incubated for 72 hours, after which cell supernatants were harvested and analyzed for secretion of cytokines, IFN-g and TNF-α. Both SG-3-00802 and SG-3-05021 induced an increase in IFN-γ and TNF-α after stimulation with anti-CD40 either alone or in combination with anti PD1 (FIGS. 26A-26B and 27A-27B). Data shown for experiment conducted in >4 Donor PBMCs.

Another experiment addresses T1, CCR7 (Homo sapiens, UniProt P32248).
T1 construct: expressed in transfected cells
T1 sequence (P32248 25-378): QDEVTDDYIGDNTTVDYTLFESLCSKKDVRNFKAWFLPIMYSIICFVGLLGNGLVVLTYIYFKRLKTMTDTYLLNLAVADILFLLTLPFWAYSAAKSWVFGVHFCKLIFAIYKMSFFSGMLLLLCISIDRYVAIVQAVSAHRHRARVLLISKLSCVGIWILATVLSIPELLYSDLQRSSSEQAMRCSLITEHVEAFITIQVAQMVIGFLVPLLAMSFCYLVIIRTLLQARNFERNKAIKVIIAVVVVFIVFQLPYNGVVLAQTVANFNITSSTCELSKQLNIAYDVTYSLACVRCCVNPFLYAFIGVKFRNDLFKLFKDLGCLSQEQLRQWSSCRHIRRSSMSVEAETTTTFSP
As to the kind of experiment: SelectScreen chemokine receptor U2OS agonist/antagonist assay. Format: cell-based. The settings on record: CCR7 expressing U2OS cells. The protocol: (§1) Peptides SG-3-00802 and SG-3-05021 were screened for agonist and antagonist activity of the chemokine receptors CCR7, CXCR3, and CXCR4.
(§2) In agonist assays, chemokine receptor expressing U2OS cells are thawed and resuspended in Assay Media (DMEM, 1% dialyzed FBS, 25 mM HEPES pH 7.3, 0.1 mM NEAA, 100 U/mL/100 μg/mL Pen/Strep) to a concentration of 312,500 cells/mL. 4 μL of a 10×serial dilution of I-TAC (control agonist starting concentration, 500 nM) or compounds are added to appropriate wells of a 384-well TC-Treated assay plate. 32 μL of cell suspension (10,000 cells) is added to each well. 4 μL of Assay Media is added to all wells to bring the final assay volume to 40 μL. The plate is incubated for 16-24 hours at 37° C./5% CO2 in a humidified incubator. 8 μL of 1 μM Substrate+Solution D Loading Solution is added to each well and the plate is incubated for 2 hours at room temperature. The plate is read on a fluorescence plate reader.
(§3) In antagonist assays, CXCR3-bla U2OS cells were thawed and prepared as described above for the Agonist assay. 4 μL of 10×compounds or assay media was added to appropriate wells of a TC-Treated assay plate. 32 μL of cell suspension was added to the wells and pre-incubated at 37° C./5% CO2 in a humidified incubator with compounds and control antagonist titration for 30 minutes. 4 μL of 10×control agonist I-TAC at the pre-determined EC80 concentration is added to wells containing the control antagonist or compounds. The plate is incubated for 16-24 hours at 37° C./5% CO2 in a humidified incubator. 8 μL of 1 μM Substrate+Solution D Loading Solution is added to each well and the plate is incubated for 2 hours at room temperature. The plate is read on a fluorescence plate reader.

The target of the next experiment is T2, CXCR4 (Homo sapiens, UniProt P61073).
T2 construct: expressed in transfected cells
The description is as above. It is filed as cell-based. The settings on record: CXCR4 expressing U2OS cells. As for the experimental part: as §1, §2, §3

T2 sequence (P61073 whole entry): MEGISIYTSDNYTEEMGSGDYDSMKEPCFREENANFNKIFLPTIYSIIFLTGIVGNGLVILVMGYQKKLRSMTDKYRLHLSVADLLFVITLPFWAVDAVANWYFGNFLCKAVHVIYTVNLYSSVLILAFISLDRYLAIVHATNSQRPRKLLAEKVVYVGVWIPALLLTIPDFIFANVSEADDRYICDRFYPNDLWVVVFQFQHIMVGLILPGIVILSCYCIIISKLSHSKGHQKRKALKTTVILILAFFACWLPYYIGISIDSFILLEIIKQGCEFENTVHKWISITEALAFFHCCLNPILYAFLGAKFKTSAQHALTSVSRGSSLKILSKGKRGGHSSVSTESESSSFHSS

With “LGKTDWIEKYFKVKKEKIDKMQRFLQG [SG-3-05021, peptide from bacteroides.clarus.dsm.22519]”, in the experiment with RENCA tumors, the “survival time (days)” value is recorded as “survived a longer time” and the tumor volume entry is reported as “decrease in tumor volume”. In experiment [1], the IFN-γ secretion result is recorded as “increase” and the TNF-α secretion result was “increase”. Also, in the experiment with CCR7, the “SelectScreen Agonist Mode” value was “no agonistic activity and No”. Also, in the experiment with CXCR4, the “SelectScreen Agonist Mode” value is “no agonistic activity and No”.
For the sequence “MKVRPSVKPMCEKCKIIRRKGRVMVICENPKHKQRQG [SG-3-00802, peptide from oscillibacter.sp t_155102]”, in the experiment with RENCA tumors (QD or BID administration of the peptide), the “volume of syngeneic RENCA tumors, dose dependence” value was “dose-dependent manner”. The “# of animals with complete tumor regression out of total animals per group (primary study)” value in the experiment on RENCA tumors (Table 16, ~100 mm^3 study) was 2/12; in the experiment on RENCA tumors (Table 17, ~200 mm^3 study), 0/10. In addition, the “# of animals without tumor progression out of re-challenged animals per group (re-challenge study)” value in the experiment with RENCA tumors (Table 16, ~100 mm^3 study) is recorded as 2/2. Moreover, the “survival, initial dosing” value in the experiment with RENCA tumors (dosing groups allocated at tumors ~100 mm^3) and in the experiment with RENCA tumors (dosing groups allocated at tumors ~200 mm^3) was “increased survival” in each case. Moreover, the “survival time (days)” value with RENCA tumors was “survived a longer time”. In the experiment on RENCA tumors, the tumor volume result is recorded as “robust decrease”. Further, the “tumor volumes, initial dosing experiment” value with RENCA tumors (~100 mm^3 study, 40 days after dosing started) is “smaller”; in the experiment with RENCA tumors (~200 mm^3 study, 15 days after dosing started), “smaller”. Also, in the experiment on RENCA tumors (~100 mm^3 study, re-implantation on day 39 after dosing completion, opposite flank), the “percent of mice surviving after re-challenge” value is reported as “increased percent of mice surviving”. For the same sequence, the “tumor volumes after re-challenge” value with RENCA tumors (~100 mm^3 study, vs PBS-treated control mice) is listed as “remained smaller than PBS-treated control mice”. Besides, the IFN-γ secretion result in experiment [1] was “increase”. Also, in experiment [1], the TNF-α secretion result is reported as “increase”. For the same sequence, the “SelectScreen Agonist Mode” value with CCR7 was “weak agonistic activity and No”; with CXCR4, “no agonistic activity and No”. In the experiment with CXCR4, the “SelectScreen Antagonist Mode” value was “moderate antagonistic activity and no antagonistic activity and Yes”.
